Patent US20150283227A1, “SYNTHETIC ENV PROTEINS” (priority 2012, published 2015)
Entries after “also recorded” stand apart in the source; their conditions may differ. Like-named read-outs stand apart in the source and are kept apart here. Marks after values point to notes of the source that are not given here. Where a SMILES comes first, the peptide text is derived from it. [ ]: non-standard residue; d: D form. The star is where a group is joined. ξ: configuration not given here. X1 = CC(=O)NC1C(O)[C@H](O)C(CO)O[C@H]1O[C@@H]1C(CO)O[C@@H](N*)C(NC(C)=O)C1O; Orn(CH(NH2)2) = NC(N)NCCC[C@H](N)C(=O)O; Ile(3ξ) = CCC(C)[C@H](N)C(=O)O; Thr(3ξ) = CC(O)[C@H](N)C(=O)O

Assays:
[1] = target: Man5GlcNAc2 V1V2 glycopeptide, DMSO-oxidized disulfide-linked dimer (HIV-1 strain AE.CM244 (A244)); assay: SPR kinetics, DMSO-oxidized dimer; reference CH01
[2] = target: Man5GlcNAc2 V1V2 glycopeptide, DMSO-oxidized disulfide-linked dimer (HIV-1 strain AE.CM244 (A244)); assay: SPR kinetics, DMSO-oxidized dimer; reference CH58 UCA
[3] = target: Man3GlcNAc2 V1V2 glycopeptide, DMSO-oxidized disulfide-linked dimer (HIV-1 strain AE.CM244 (A244)); assay: SPR kinetics, mAb captured on anti-IgG, DMSO-oxidized dimer injected; 1:1 Langmuir
[4] = target: Man5GlcNAc2 V1V2 glycopeptide, DMSO-oxidized disulfide-linked dimer (HIV-1 strain AE.CM244 (A244)); assay: as above
[5] = target: Man3GlcNAc2 V1V2 glycopeptide, DMSO-oxidized disulfide-linked dimer (HIV-1 strain AE.CM244 (A244)); assay: SPR kinetics, mAb captured on anti-IgG, DMSO-oxidized dimer injected; faster component of the dissociation phase
[6] = target: Man5GlcNAc2 V1V2 glycopeptide, DMSO-oxidized disulfide-linked dimer (HIV-1 strain AE.CM244 (A244)); assay: as above
BnAb PG9 = format: binding, human
Method: V1V2 glycopeptide binding Kd and rate constant measurements were carried out on a BIAcore 3000 instrument using an anti-human Ig Fc capture assay as described earlier (Alam, S. M.; McAdams, M.; Boren, D.; Rak, M.; Scearce, R. M.; Gao, F.; Camacho, Z. T.; Gewirth, D.; Kelsoe, G.; Chen, P.; Haynes, B. F. J. Immunol. 2007, 178, 4424-4435.). Anti-human IgG Fc antibody (Sigma Chemicals) was immobilized on a CM5 sensor chip to about 10000 response units (RU), and each antibody was captured to about 300 RU. Anti-RSV Synagis mAb was captured on the same sensor chip as a control surface. Non-specific binding and drift in signal was double referenced by subtracting binding to the control surface and blank buffer flow for each of the peptide binding interactions. All curve-fitting analyses were performed using global fit of multiple titrations to the 1:1 Langmuir model. All data analysis was performed using the BIAevaluation 4.1 analysis software (GE Healthcare).

BnAb CH01 = assay: SPR binding of V1V2 peptides/glycopeptides to captured mAb CH01; design: species or system human
V2 mAb CH58 = assay: SPR binding of V1V2 peptides/glycopeptides to captured V2 mAb CH58; design: species or system human
V2 mAb CH59 = assay: SPR binding of V1V2 peptides to captured V2 mAb CH59; design: species or system human; details: Example 6; peptide oxidized by solubilization in DMSO, 50 ug/mL
Text: FIGS. 42A-42D. Selective binding of V1V2 BnAbs to mannose derivatized V1V2 glycopeptides but not to aglycone or GlcNAc2 V1V2 peptides. SPR curves showing preferential binding of PG9 and CH01 BnAbs to Man5—(FIG. 42A) and Man3—(FIG. 42B) GlcNAc2 V1V2 glycopeptides but not to GlcNAc2 (FIG. 42C) and aglycone (FIG. 42D) peptides. By contrast, V2 mAbs CH58 and CH59 bound to both aglycone ([…]) and GlcNAc2 (FIG. 42D) V1V2 peptides. Each V1V2 peptide was oxidized by solubilization in DMSO and injected over the indicated MAb at 50 ug/mL. Data shown is after reference subtraction of non-specific signal measured over the control mAb (Synagis). Binding data are representative of at least three experiments for Man5 and Man3 V1V2 peptides and two experiments for GlcNAc2 and aglycone V1V2.
V1V2 glycopeptide binding Kd and rate constant measurements were carried out on BIAcore 3000 instruments as described earlier (Alam et al, Immunol. 178(7):4424-4435 (2007), Alam et al, J. Virol. 82(1):115-125 (2008)). Anti-human IgG Fc antibody (Sigma Chemicals) was immobilized on either a CM3 or CM5 (CM3 for kinetics and Kd determination) sensor chip (to minimize non-specific binding of peptides to chip matrix) to about 5000 Resonance Unit (RU) and each antibody was captured to about 100-200 RU on individual flow cells, in addition to one flow cell with the control Synagis mAb on the same sensor chip. […]

PG9 UCA = assay: SPR binding to unmutated ancestor of PG9; design: species or system human; details: for SPR binding to PG9 UA: Example 1; for SPR binding to PG9 UCA / Kd: Example 6
Method: (§1) Only the V1/V2 mAb CH58 bound to the glycan-deficient (aglycone) peptide (FIG. 9A). V1/V2 bNAbs ([…], CH01) bound weakly to V1/V2 GlcNAc2 peptide (FIG. 9B). In contrast, both bNAbs PG9 and CH01 bound avidly to the glycopeptides, V1/V2 Man3GlcNAc2 and V1/V2 Man5GlcNAc2 (FIGS. 9C and 9D). CH58 bound weakly to both glycopeptides. Each of the mAbs was captured on a human Fc specific IgG directly immobilized on a BIAcore CM5 sensor chip. Each of the V1/V2 peptides (3 min at 50 uL/min) was injected over the mAb captured surface and SPR binding was monitored on a BIAcore 3000 instrument. Non-specific binding of peptides was subtracted following measurement of signal on a surface with a control ant-RSV mab Synagis.
(§2) The binding Kd (disassociation constant) of the UAs ranges from about 0.15 to 0.2 μM.
(§3) V1V2 glycopeptide binding Kd and rate constant measurements were carried out on BIAcore 3000 instruments as described earlier (Alam et al, Immunol. 178(7):4424-4435 (2007), Alam et al, J. Virol. 82(1):115-125 (2008)). Anti-human IgG Fc antibody (Sigma Chemicals) was immobilized on either a CM3 or CM5 (CM3 for kinetics and Kd determination) sensor chip (to minimize non-specific binding of peptides to chip matrix) to about 5000 Resonance Unit (RU) and each antibody was captured to about 100-200 RU on individual flow cells, in addition to one flow cell with the control Synagis mAb on the same sensor chip. Non-specific binding of V1V2 glycopeptide was double-referenced by substracting the control surface and blank buffer flow for each mAb-V1V2 glycopeptide binding interaction. […] SPR curve fitting analysis was performed using global fit of multiple titrations to the 1:1 Langmuir model. All data analysis was performed using the BIAevaluation 4.1 analysis software (GE Healthcare).

CH01 UCA = assay: SPR binding to unmutated ancestor of CH01; design: species or system human; details: for SPR binding to CH01 UA: Example 1; for SPR binding to CH01 UCA / Kd: Example 6
Method: as §1, §2, §3

CH58 UCA = assay: SPR binding to unmutated ancestor of CH58; design: species or system human
Method: as §1, §3

[7] = Circular dichroism analysis of V1V2 peptides; format: physicochemical; details: dimerized in 20% DMSO-phosphate buffer about 20 h
Method: Circular dichroism (CD) spectra of V1/V2 peptides were measured on an Aviv model 202 spectropolarimeter using a 1 mm path length quartz cuvette. The 20% DMSO-treated peptides were dialyzed against 20 mM phosphate buffer, pH 7.0 to remove DMSO using a dialysis cassette of MW cut-off 3500 Da. The CD spectra of peptides (at 100 200 μg/ml concentration) in phosphate buffer (pH 7.4) were recorded at 25° C. Three scans of the CD spectra of each peptide were averaged and the CD signal from phosphate buffer was subtracted out.

[8] = Example 6, peptide solubilized/oxidized in DMSO, 50 μg/mL
[9] = Example 6, spontaneously (air) oxidized, phosphate buffer, 50 ug/mL
[10] = Example 6, iodine-oxidized glycopeptide, 50 ug/mL

CH01 UCA (antibody)
fold weaker binding than the mature BnAb [1]: 3 fold | fold higher affinity than the UCA of CH58 [2]: 5 fold | kon [3]: 2060 M⁻¹ s⁻¹ | kon [4]: 8490 M⁻¹ s⁻¹ | Kd [5]: 1780 nM | koff [5]: 0.00363 s⁻¹ | Kd [6]: 118 nM | koff [6]: 0.000721 s⁻¹

CCC(C)[C@H](NC(=O)[C@@H]1CCCN1C(=O)[C@@H](NC(=O)[C@@H](NC(=O)[C@H](CC(=O)O)NC(=O)[C@H](CC(C)C)NC(=O)[C@H](CCCCN)NC(=O)[C@H](Cc1ccc(O)cc1)NC(=O)[C@H](Cc1ccccc1)NC(=O)[C@H](CC(C)C)NC(=O)[C@H](C)NC(=O)[C@H](Cc1cnc[nH]1)NC(=O)[C@@H](NC(=O)[C@H](CCCCN)NC(=O)[C@H](CCC(N)=O)NC(=O)[C@H](CCCCN)NC(=O)[C@H](CCCCN)NC(=O)[C@H](CC(=O)O)NC(=O)[C@H](CCCNC(=N)N)NC(=O)[C@H](CC(C)C)NC(=O)[C@H](CCC(=O)O)NC(=O)[C@@H](NC(=O)[C@@H](NC(=O)[C@H](CCSC)NC(=O)[C@H](CC(=O)N[C@@H]1OC(CO)[C@@H](O[C@@H]2OC(CO)[C@@H](O)C(O)C2NC(C)=O)C(O)C1NC(C)=O)NC(=O)[C@H](Cc1ccccc1)NC(=O)[C@H](CO)NC(=O)[C@H](CS)NC(=O)[C@H](CC(=O)N[C@@H]1OC(CO)[C@@H](O[C@@H]2OC(CO)[C@@H](O)C(O)C2NC(C)=O)C(O)C1NC(C)=O)NC(=O)[C@H](CCCNC(N)N)NC(=O)[C@@H](NC(=O)[C@H](CCC(=O)O)NC(=O)[C@H](CC(=O)O)NC(=O)[C@@H](NC(=O)[C@@H](NC(C)=O)C(C)CC)C(C)O)C(C)C)C(C)O)C(C)O)C(C)C)C(C)CC)C(C)C)C(N)=O (stereo partly drawn) [GlcNAc2 V1V2] (Ac-[Ile(3ξ)][Thr(3ξ)]DEV[Orn(CH(NH2)2)]D(X1)CSFD(X1)M[Thr(3ξ)][Thr(3ξ)]ELRDKKQKVHALFYKLD[Ile(3ξ)]VP[Ile(3ξ)]-NH2)
SPR binding to PG9 (BnAb PG9; Example 1, peptide injected over mAb captured on anti-human Fc, BIAcore 3000): bound weakly | SPR binding to PG9 (BnAb PG9; Example 5, peptides 200 μg/mL, glycans 25 μg/mL over captured PG9, listed as 3): did not bind | SPR binding to PG9 (BnAb PG9; Example 5, peptides 200 μg/mL, glycans 25 μg/mL over captured PG9, listed as V1V2 GlcNAc2): minimal to no binding | SPR binding to PG9 (BnAb PG9; [8]): no binding | SPR binding to CH01 (BnAb CH01; Example 1, peptide injected over captured mAb): bound weakly | SPR binding to CH01 (BnAb CH01; [8]): no binding | SPR binding to CH58 (V2 mAb CH58; Example 6, peptide solubilized/oxidized in DMSO, 1-50 μg/mL): retained | SPR binding to CH59 (V2 mAb CH59): bound | SPR binding to PG9 UA (PG9 UCA): no binding | SPR binding to PG9 UCA (PG9 UCA): neither UCAs bound | SPR binding to CH01 UA (CH01 UCA): slow association indicating weak affinity interaction | SPR binding to CH01 UCA (CH01 UCA): neither UCAs bound | SPR binding to CH58 UA (CH58 UCA; Example 1): no binding | β-strand (CD spectra deconvolution, K2D3) [7]: 17%

Man3GlcNAc2 V1V2
SPR binding to PG9 (BnAb PG9; Example 1, peptide injected over mAb captured on anti-human Fc, BIAcore 3000, listed as V1/V2 Man3GlcNAc2): bound avidly; also recorded: bind selectively | Kd (BnAb PG9; Example 5, PG9, read-out: Kd (order of magnitude)): ~100 nM | Kd (BnAb PG9; Example 5, glycopeptide 1-40 μg/mL over captured PG9, not deliberately oxidized, global fit 1:1 Langmuir, read-out: Kd): 119 nM | Kd (BnAb PG9; Example 6, PG9, glycopeptide fully oxidized in 20% DMSO (dimer), listed as Man3, read-out: Kd): 37 nM | Kd (BnAb PG9; Example 6, PG9, glycopeptide fully oxidized in 20% DMSO (dimer), listed as Man3 GlcNAc2, read-out: Kd): 37.1 nM | SPR binding to PG9 (BnAb PG9; [9]): weak or no binding | ka (BnAb PG9; Table 1, PG9, glycopeptide fully oxidized in 20% DMSO (dimer)): 3.97 M^−1s^−1 (×10^3) | SPR binding to CH01 (BnAb CH01; Example 1, peptide injected over captured mAb, listed as V1/V2 Man3GlcNAc2): bound avidly; also recorded: bind selectively | SPR binding to CH01 (BnAb CH01; [10]): not to the BnAbs CH01 or PG9 | SPR binding to CH01 (BnAb CH01; [9]): weak or no binding | ka (BnAb CH01; Table 1, CH01, DMSO-oxidized dimer): 9.97 M^−1s^−1 (×10^3) | SPR binding to CH58 (V2 mAb CH58; Example 1, antigen injected over captured mAb): bound weakly | SPR binding to CH58 (V2 mAb CH58; [10]): bound | SPR binding to CH58 (V2 mAb CH58; [9]): show binding | SPR binding to PG9 UA (PG9 UCA): binds | SPR binding to PG9 UCA (PG9 UCA): bound | Kd (PG9 UCA; PG9 UCA, DMSO-oxidized dimer): 1100 nM | Kd (PG9 UCA; PG9 UCA, DMSO-oxidized dimer, derived using faster component of dissociation phase): 1060 nM | ka (PG9 UCA; Table 1, PG9 UCA, DMSO-oxidized dimer): 5.33 M^−1s^−1 (×10^3) | SPR binding to CH01 UA (CH01 UCA): binds | SPR binding to CH01 UCA (CH01 UCA): bound | Kd (CH01 UCA; CH01 UCA, DMSO-oxidized dimer): 1800 nM | Kd (CH01 UCA; CH01 UCA, DMSO-oxidized dimer, derived using faster component of dissociation phase): 1780 nM | ka (CH01 UCA; Table 1, CH01 UCA, DMSO-oxidized dimer): 2.06 M^−1s^−1 (×10^3) | Kd (CH58 UCA; Example 6, CH58 UCA, DMSO-oxidized dimer, 1-10 μg/mL): 600 nM | β-strand (CD spectra deconvolution, K2D3) [7]: 33%
